pIC50: −log10 of the molar value.

What is called pIC50 is the IC50 on a negative log10 scale, so that one unit is a factor of ten.

Sequence of ALK2 (Q04771 21-509): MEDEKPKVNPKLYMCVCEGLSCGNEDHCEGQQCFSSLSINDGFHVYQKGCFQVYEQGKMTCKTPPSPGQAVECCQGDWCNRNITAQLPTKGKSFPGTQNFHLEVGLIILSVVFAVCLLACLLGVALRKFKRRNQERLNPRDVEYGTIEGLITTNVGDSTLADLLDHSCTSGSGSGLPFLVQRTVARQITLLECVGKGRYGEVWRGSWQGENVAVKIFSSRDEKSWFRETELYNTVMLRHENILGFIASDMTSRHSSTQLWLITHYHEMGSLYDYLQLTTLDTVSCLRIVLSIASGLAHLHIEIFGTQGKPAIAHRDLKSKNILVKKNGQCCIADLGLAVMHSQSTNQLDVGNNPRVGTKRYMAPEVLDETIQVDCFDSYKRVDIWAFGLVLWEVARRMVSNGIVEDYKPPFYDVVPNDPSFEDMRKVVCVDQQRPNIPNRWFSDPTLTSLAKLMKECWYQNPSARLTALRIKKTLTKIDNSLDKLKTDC

The assay has as its target ALK2 (Homo sapiens (Human), UniProt Q04771). The experiment in a line: ALK2 inhibition, LanthaScreen Eu Kinase Binding Assay (ThermoFisher Scientific / Life Technologies). Particulars: read-out: Measured Ki (IC50) Value for Compounds: IC50. How it is done: Biochemical assays to measure the inhibitory effects of the compounds were performed by ThermoFisher Scientific (Life Technologies). ALK2 inhibition was tested using LanthaScreen™ Eu Kinase Binding Assay screening protocol.
For the molecule `Cn1cnc(Nc2nc(N3CCC[C@H]3c3ccccc3)nn3cccc23)c1` [Compound 15a, (S)—N-(1-methyl-1H-imidazol-4-yl)-2-(2-phenylpyrrolidin-1-yl)pyrrolo[2,1-f][1,2,4]triazin-4-amine], the pIC50 is above 7.00.

As to `OC[C@@H]1CCCN1c1nc(Nc2cn(-c3ccccc3)cn2)c2sccc2n1` [Compound 16b, (S)-(1-(4-((1-phenyl-1H-imidazol-4-yl)amino)thieno[3,2-d]pyrimidin-2-yl)pyrrolidin-2-yl)methanol], the pIC50 is above 7.00. Turning to `C[C@H](Nc1nc(Nc2cn(-c3ccccc3)cn2)c2sccc2n1)c1ccccc1` [Compound 17a, (S)—N4-(1-phenyl-1H-imidazol-4-yl)-N2-(1-phenylethyl)thieno[3,2-d]pyrimidine-2,4-diamine], the negative-log IC50 (pIC50) is 6.00 to 7.00. The result for `Cn1cnc(Nc2nc(N3CCC[C@H]3c3ccccn3)nn3cccc23)c1` [Compound 18a, (S)—N-(1-methyl-1H-imidazol-4-yl)-2-(2-(pyridin-2-yl)pyrrolidin-1-yl)pyrrolo[2,1-f][1,2,4]triazin-4-amine] reads above 7.00; that for `Cn1cnc(Nc2nc(N3CCCC3c3cccnc3)nn3cccc23)c1` (stereo not shown) [Compound 19a, N-(1-methyl-1H-imidazol-4-yl)-2-(2-(pyridin-3-yl)pyrrolidin-1-yl)pyrrolo[2,1-f][1,2,4]triazin-4-amine], above 7.00.

On to `Cn1cnc(Nc2nc(N3CCCC3c3ccncc3)nn3cccc23)c1` (stereo not shown) [Compound 20a, N-(1-methyl-1H-imidazol-4-yl)-2-(2-(pyridin-4-yl)pyrrolidin-1-yl)pyrrolo[2,1-f][1,2,4]triazin-4-amine], for which the pIC50 was 6.00 to 7.00. Next, `C[C@H](Nc1nc(Nc2cn(C)cn2)c2ccccc2n1)c1ccccc1` [Compound 21c, (S)—N4-(1-methyl-1H-imidazol-4-yl)-N2-(1-phenylethyl)quinazoline-2,4-diamine]: above 7.00. Take `Cc1cc2c(Nc3cn(-c4ccccc4)cn3)nc(N3CCC[C@H]3CO)nc2s1` [Compound 22c, (S)-(1-(6-methyl-4-((1-phenyl-1H-imidazol-4-yl)amino)thieno[2,3-d]pyrimidin-2-yl)pyrrolidin-2-yl)methanol]: the negative logarithm of the IC50 (pIC50) was above 7.00.

In the case of `Cc1cc2nc(N3CCC[C@H]3CO)nc(Nc3cn(-c4ccccc4)cn3)c2s1` [Compound 23c, (S)-(1-(6-methyl-4-((1-phenyl-1H-imidazol-4-yl)amino)thieno[3,2-d]pyrimidin-2-yl)pyrrolidin-2-yl)methanol], the pIC50 was above 7.00.

As for `C[C@H](Nc1nc(Nc2cn(-c3ccccc3)cn2)c2ccccc2n1)c1ccccc1` [Compound 24b, (S)—N4-(1-phenyl-1H-imidazol-4-yl)-N2-(1-phenylethyl)quinazoline-2,4-diamine], the pIC50 is 6.00 to 7.00. Next, `OC[C@@H]1CCCN1c1nc(Nc2cn(-c3ccc(F)cc3)cn2)c2cccn2n1` [Compound 25c, (S)-(1-(4-((1-(4-fluorophenyl)-1H-imidazol-4-yl)amino)pyrrolo[2,1-f][1,2,4]triazin-2-yl)pyrrolidin-2-yl)methanol]: above 7.00.

For `OC[C@@H]1CCCN1c1nc(Nc2cn(C3CC3)cn2)c2cccn2n1` [Compound 26c, (S)-(1-(4-((1-cyclopropyl-1H-imidazol-4-yl)amino)pyrrolo[2,1-f][1,2,4]triazin-2-yl)pyrrolidin-2-yl)methanol], the negative-log IC50 (pIC50) was 6.00 to 7.00. On to `c1ccc(C2CCCN2c2nc(Nc3cn(C4CC4)cn3)c3cccn3n2)nc1` (stereo not shown) [Compound 27a, N-(1-cyclopropyl-1H-imidazol-4-yl)-2-(2-(pyridin-2-yl)pyrrolidin-1-yl)pyrrolo[2,1-f][1,2,4]triazin-4-amine], for which the negative logarithm of the IC50 (pIC50) was 6.00 to 7.00. Next, `OC[C@@H]1CCCN1c1nc(Nc2cn(C3CCCCC3)cn2)c2cccn2n1` [Compound 28c, (S)-(1-(4-((1-cyclohexyl-1H-imidazol-4-yl)amino)pyrrolo[2,1-f][1,2,4]triazin-2-yl)pyrrolidin-2-yl)methanol]: 6.00 to 7.00; `c1ccc(C2CCCN2c2nc(Nc3cn(C4CCCCC4)cn3)c3cccn3n2)nc1` (stereo not shown) [Compound 29a, N-(1-cyclohexyl-1H-imidazol-4-yl)-2-(2-(pyridin-2-yl)pyrrolidin-1-yl)pyrrolo[2,1-f][1,2,4]triazin-4-amine]: 6.00 to 7.00; `c1ccc(C2CCCN2c2nc(Nc3cn(C4CC4)cn3)c3cccn3n2)cc1` (stereo not shown) [Compound 30a, N-(1-cyclopropyl-1H-imidazol-4-yl)-2-(2-phenylpyrrolidin-1-yl)pyrrolo[2,1-f][1,2,4]triazin-4-amine]: 6.00 to 7.00. Next, `OC[C@@H]1CCCN1c1nc(Nc2cn(-c3ccccc3)cn2)c2ccsc2n1` [Compound 31c, (S)-(1-(4-((1-phenyl-1H-imidazol-4-yl)amino)thieno[2,3-d]pyrimidin-2-yl)pyrrolidin-2-yl)methanol]: above 7.00; `OC[C@@H]1CCCN1c1nc(Nc2cn(-c3ccccc3)cn2)c2ccccc2n1` [Compound 32a, (S)-(1-(4-((1-phenyl-1H-imidazol-4-yl)amino)quinazolin-2-yl)pyrrolidin-2-yl)methanol]: above 7.00. `c1ccc(-n2cnc(Nc3nc(N4CCCC4c4ccccn4)nc4ccoc34)c2)cc1` (stereo not shown) [Compound 33a, N-(1-phenyl-1H-imidazol-4-yl)-2-(2-(pyridin-2-yl)pyrrolidin-1-yl)furo[3,2-d]pyrimidin-4-amine]: the pIC50 is above 7.00. With `CN1CCN(c2nc(Nc3cn(C)cn3)c3cccn3n2)CC1` [Compound 34a, N-(1-methyl-1H-imidazol-4-yl)-2-(4-methylpiperazin-1-yl)pyrrolo[2,1-f][1,2,4]triazin-4-amine], the pIC50 was below 6.00. The result for `CN1CCN(c2nc(Nc3cn(-c4ccccc4)cn3)c3cccn3n2)CC1` [Compound 35a, 2-(4-methylpiperazin-1-yl)-N-(1-phenyl-1H-imidazol-4-yl)pyrrolo[2,1-f][1,2,4]triazin-4-amine] reads 6.00 to 7.00; that for `OC[C@@H]1CCCN1c1nc(Nc2cn(-c3ccccc3F)cn2)c2cccn2n1` [Compound 36c, (S)-(1-(4-((1-(2-fluorophenyl)-1H-imidazol-4-yl)amino)pyrrolo[2,1-f][1,2,4]triazin-2-yl)pyrrolidin-2-yl)methanol], above 7.00; that for `c1ccc(C2CCCN2c2nc(Nc3cn(C4CCC4)cn3)c3cccn3n2)nc1` (stereo not shown) [Compound 37c, N-(1-cyclobutyl-1H-imidazol-4-yl)-2-(2-(pyridin-2-yl)pyrrolidin-1-yl)pyrrolo[2,1-f][1,2,4]triazin-4-amine], above 7.00. The result for `OC[C@@H]1CCCN1c1nc(Nc2cn(-c3cnc4ccccc4c3)cn2)c2cccn2n1` [Compound 38c, (S)-(1-(4-((1-(quinolin-3-yl)-1H-imidazol-4-yl)amino)pyrrolo[2,1-f][1,2,4]triazin-2-yl)pyrrolidin-2-yl)methanol] reads above 7.00; that for `OC[C@@H]1CCCN1c1nc(Nc2cn(-c3cccnc3)cn2)c2cccn2n1` [Compound 39c, (S)-(1-(4-((1-(pyridin-3-yl)-1H-imidazol-4-yl)amino)pyrrolo[2,1-f][1,2,4]triazin-2-yl)pyrrolidin-2-yl)methanol], above 7.00. As for `c1ccc(C2CCCN2c2nc(Nc3cn(-c4ccccc4)cn3)c3occc3n2)cc1` (stereo not shown) [Compound 40a, N-(1-phenyl-1H-imidazol-4-yl)-2-(2-phenylpyrrolidin-1-yl)furo[3,2-d]pyrimidin-4-amine], the pIC50 was above 7.00. `Cc1csc2c(Nc3cn(-c4ccccc4)cn3)nc(N3CCC[C@H]3CO)nc12` [Compound 41c, (S)-(1-(7-methyl-4-((1-phenyl-1H-imidazol-4-yl)amino)thieno[3,2-d]pyrimidin-2-yl)pyrrolidin-2-yl)methanol]: the pIC50 was above 7.00. Next, `Cc1cc2nc(N3CCC[C@H]3CO)nc(Nc3cn(-c4ccc(F)cc4)cn3)c2s1` [Compound 42b, (S)-(1-(4-((1-(4-fluorophenyl)-1H-imidazol-4-yl)amino)-6-methylthieno[3,2-d]pyrimidin-2-yl)pyrrolidin-2-yl)methanol]: above 7.00.

With `OC[C@@H]1CCCN1c1nc(Nc2cn(C3CCC3)cn2)c2cccn2n1` [Compound 43a, (S)-(1-(4-((1-cyclobutyl-1H-imidazol-4-yl)amino)pyrrolo[2,1-f][1,2,4]triazin-2-yl)pyrrolidin-2-yl)methanol], the pIC50 is above 7.00.

Turning to `OC[C@@H]1CCCN1c1nc(Nc2cn(-c3cccc(F)c3)cn2)c2cccn2n1` [Compound 44c, (S)-(1-(4-((1-(3-fluorophenyl)-1H-imidazol-4-yl)amino)pyrrolo[2,1-f][1,2,4]triazin-2-yl)pyrrolidin-2-yl)methanol], the pIC50 is above 7.00. The result for `COc1cc(F)c(CC(=O)N2CCN(c3nc(Nc4cn(-c5ccccc5)cn4)c4ccsc4n3)CC2)c(F)c1` [Compound 45d, 2-(2,6-difluoro-4-methoxyphenyl)-1-(4-(4-((1-phenyl-1H-imidazol-4-yl)amino)thieno[2,3-d]pyrimidin-2-yl)piperazin-1-yl)ethanone] reads 6.00 to 7.00. Next, `c1ccc([C@@H]2CCCN2c2nc(Nc3cn(C4CCCCC4)cn3)c3cccn3n2)cc1` [Compound 46a, (S)—N-(1-cyclohexyl-1H-imidazol-4-yl)-2-(2-phenylpyrrolidin-1-yl)pyrrolo[2,1-f][1,2,4]triazin-4-amine]: 6.00 to 7.00.

Take `CC(=O)c1cccc(-n2cnc(Nc3nc(N4CCC[C@H]4CO)nn4cccc34)c2)c1` [Compound 47c, (S)-1-(3-(4-((2-(2-(hydroxymethyl)pyrrolidin-1-yl)pyrrolo[2,1-f][1,2,4]triazin-4-yl)amino)-1H-imidazol-1-yl)phenyl)ethanone]: the negative-log IC50 (pIC50) is above 7.00. For the molecule `OC[C@@H]1CCCN1c1nc(Nc2cn(-c3ccc(O)cc3)cn2)c2cccn2n1` [Compound 48c, (S)-4-(4-((2-(2-(hydroxymethyl)pyrrolidin-1-yl)pyrrolo[2,1-f][1,2,4]triazin-4-yl)amino)-1H-imidazol-1-yl)phenol], the negative-log IC50 (pIC50) was above 7.00.

These data come from patent US11661426B2, “Imidazole-containing inhibitors of ALK2 kinase” (BioCryst Pharmaceuticals, Inc., priority 2017, dated 2023).
